Measured values taken from article PMC3672471 (The Biochemical journal, 2009).

Molecular target: β-lactoglobulin (Bos taurus, UniProt P02754)
Test: isothermal titration calorimetry
Format: binding

Chain of β-lactoglobulin (P02754 17-178): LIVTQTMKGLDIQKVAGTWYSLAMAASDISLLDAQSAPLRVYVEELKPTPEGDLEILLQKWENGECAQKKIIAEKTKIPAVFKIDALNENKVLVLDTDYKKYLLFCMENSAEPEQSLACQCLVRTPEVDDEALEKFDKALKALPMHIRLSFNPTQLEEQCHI

CCCCCC(=O)OC[C@@H](O)COP(=O)(O)O [HHGP, 1-hexanoyl-2-hydroxy-sn-glycero-3-phosphate]
Kd: 1400 nM
